Data: patent US20080021026A1, “BENZOTHIOPHENE INHIBITORS OF RHO KINASE” (priority 2006, published 2008)
pIC50: −log10 of the molar value. Like-named read-outs stand apart in the source and are kept apart here.

Columns and labels:
[1] = biological target: T1, recombinant N-terminal GST-tagged human Rho kinase 1 (ROCK1, amino acids 1-535) (Homo sapiens, UniProt Q13464); test: In vitro Rho kinase assay (luciferase-based ATP consumption), ROCK1; assay type: biochemical
T1 construct: ROCK1, amino acids 1-535; purchased Invitrogen Inc. PV-3691
Method in brief: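 GST-ROCK1 (aa 1-535) at 0.82 μg/ml with 100 μg/ml S6 peptide and 3 µM ATP in Tris pH 7.5 buffer with MgCl2, CaCl2, EGTA, BSA; compound added after reaction start, 2 h at 30 °C. Remaining ATP read by luciferase luminescence; efficacy as percent of H-1152P positive control.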

[2] = biological target: T2, recombinant N-terminal GST-tagged human Rho kinase 2 (ROCK2, amino acids 1-552) (Homo sapiens, UniProt O75116); test: In vitro Rho kinase assay (luciferase-based ATP consumption), ROCK2; assay type: biochemical
T2 construct: ROCK2, amino acids 1-552; purchased Invitrogen Inc. PV3759
Method in brief: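 GST-ROCK2 (aa 1-552, 0.82 μg/ml) with 100 μg/ml S6 peptide and 3 µM ATP in Tris pH 7.5 buffer with MgCl2/CaCl2/EGTA/BSA, compound added just after reaction start, 2 h at 30 °C. Remaining ATP read by luciferase luminescence. Efficacy expressed as percentage of H-1152P positive control.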

[3] = recombinant GST-tagged human ROCK1, luciferase-based ATP consumption, read-out: ROCK1 IC50
[4] = recombinant GST-tagged human ROCK2, luciferase-based ATP consumption, read-out: ROCK2 IC50
[5] = ROCK1 IC50, recombinant GST-tagged human ROCK1, luciferase-based ATP consumption
[6] = ROCK2 IC50, recombinant GST-tagged human ROCK2, luciferase-based ATP consumption

T2 sequence (O75116 1-552): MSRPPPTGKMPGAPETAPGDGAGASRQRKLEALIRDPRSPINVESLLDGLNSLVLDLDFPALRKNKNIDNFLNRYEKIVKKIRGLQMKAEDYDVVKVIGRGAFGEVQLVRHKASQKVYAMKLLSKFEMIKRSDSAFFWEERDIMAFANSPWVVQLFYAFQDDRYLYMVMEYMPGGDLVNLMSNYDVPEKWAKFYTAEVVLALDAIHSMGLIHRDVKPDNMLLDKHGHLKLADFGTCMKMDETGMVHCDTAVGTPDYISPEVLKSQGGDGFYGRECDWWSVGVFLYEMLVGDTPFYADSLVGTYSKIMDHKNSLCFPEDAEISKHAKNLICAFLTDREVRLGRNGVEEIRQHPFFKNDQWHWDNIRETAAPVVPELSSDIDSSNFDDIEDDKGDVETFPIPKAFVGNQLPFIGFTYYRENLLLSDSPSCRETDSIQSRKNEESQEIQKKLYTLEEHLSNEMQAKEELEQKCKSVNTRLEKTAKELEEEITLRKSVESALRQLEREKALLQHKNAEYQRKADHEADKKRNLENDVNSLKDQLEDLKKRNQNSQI
T1 sequence (Q13464 1-535): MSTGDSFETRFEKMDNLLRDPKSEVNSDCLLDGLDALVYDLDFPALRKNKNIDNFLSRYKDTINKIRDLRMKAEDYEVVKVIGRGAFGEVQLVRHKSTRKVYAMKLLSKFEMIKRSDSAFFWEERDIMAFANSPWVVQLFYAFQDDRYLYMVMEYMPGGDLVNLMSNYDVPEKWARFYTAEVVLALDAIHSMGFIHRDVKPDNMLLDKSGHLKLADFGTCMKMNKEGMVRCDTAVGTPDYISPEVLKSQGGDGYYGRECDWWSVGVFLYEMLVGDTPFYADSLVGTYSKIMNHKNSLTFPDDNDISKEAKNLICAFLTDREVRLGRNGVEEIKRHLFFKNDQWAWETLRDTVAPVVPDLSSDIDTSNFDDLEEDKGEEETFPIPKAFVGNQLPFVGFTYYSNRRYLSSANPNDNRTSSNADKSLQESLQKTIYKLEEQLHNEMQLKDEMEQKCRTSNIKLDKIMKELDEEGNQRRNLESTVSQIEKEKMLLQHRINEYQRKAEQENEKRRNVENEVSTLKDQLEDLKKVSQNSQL

| Compound | pIC50 [1, 3] | pIC50 [2, 4] | pIC50 [1, 5] | pIC50 [2, 6] |
| --- | --- | --- | --- | --- |
| COc1ccc(C(=O)NCc2ccc3sc(-c4ccnc(N)n4)c(C)c3c2)c(OC)c1OC [Example 280, COc1ccc(C(═O)NCc2ccc3sc(c(C)c3c2)-c4ccnc(N)n4)c(OC)c1OC] | < 5.30 | > 5.30 |  |  |
| Cc1c(-c2ccnc(N)n2)sc2ccc(CNC(=O)C(C(C)C)N(C)C(=O)OC(C)(C)C)cc12 (stereo not shown) [Example 312, CC(C)C(N(C)C(═O)OC(C)(C)C)C(═O)NCc1ccc2sc(c(C)c2c1)-c3ccnc(N)n3] | < 5.30 | < 5.30 |  |  |
| Cc1c(-c2nccnc2N)sc2ccc(Cl)cc12 [Example 12, 3-(5-Chloro-3-methylbenzo[b]thiophen-2-yl)pyrazin-2-amine] | < 5.30 | < 5.30 |  |  |
| Cc1c(-c2ccnc(N)n2)sc2ccc(CNC(=O)C3CCc4ccccc43)cc12 (stereo not shown) [Example 159, Cc1c(sc2ccc(CNC(═O)C3CCc4ccccc34)cc12)-c5ccnc(N)n5] | > 5.30 | > 5.30 |  |  |
| Cc1cc(C)cc(C(=O)NCc2ccc3sc(-c4ccnc(N)n4)c(C)c3c2)c1 [Example 135, Cc1cc(C)cc(c1)C(═O)NCc2ccc3sc(c(C)c3c2)-c4ccnc(N)n4] | < 5.30 | < 5.30 |  |  |
| Cc1c(-c2ccnc(N)n2)sc2ccc(CNC(=O)c3ccccc3C(=O)c3ccc(O)cc3)cc12 [Example 316, Cc1c(sc2ccc(CNC(═O)c3ccccc3C(═O)c4ccc(O)cc4)cc12)-c5ccnc(N)n5] | > 5.30 | > 5.30 |  |  |
| COC(=O)c1cccc(Sc2ccc3sc(-c4ccnc(N)n4)c(C)c3c2)c1 [Example 85, Methyl 3-(2-(2-aminopyrimidin-4-yl)-3-methylbenzo[b]thiophen-5-ylthio)benzoate] | > 5.30 | > 5.30 |  |  |
| Cc1c(-c2ccnc(N)n2)sc2ccc(CNC(=O)C=Cc3ccc(Cl)cc3)cc12 [Example 224, Cc1c(sc2ccc(CNC(═O)C═Cc3ccc(Cl)cc3)cc12)-c4ccnc(N)n4] | < 5.30 | > 5.30 |  |  |
| Cc1c(-c2ccnc(N)n2)sc2ccc(CNC(=O)c3ccc([N+](=O)[O-])cc3Cl)cc12 [Example 266, Cc1c(sc2ccc(CNC(═O)c3ccc(cc3Cl)[N+]([O−])═O)cc12)-c4ccnc(N)n4] |  |  | < 5.30 | > 5.30 |
| CCCCc1ccc(C(=O)NCc2ccc3sc(-c4ccnc(N)n4)c(C)c3c2)cc1 [Example 203, CCCCc1ccc(cc1)C(═O)NCc2ccc3sc(c(C)c3c2)-c4ccnc(N)n4] | < 5.30 | < 5.30 |  |  |
| Cc1c(-c2ccc3[nH]ncc3c2)sc2ccc(Cl)cc12 [Example 10, 5-(5-Chloro-3-methylbenzo[b]thiophen-2-yl)-1H-indazole] | > 5.30 | > 5.30 |  |  |
| Cc1c(-c2ccnc(N)n2)sc2ccc(Nc3cccc(NC(=O)c4ccc(C(=O)O)cc4)c3)cc12 [Example 63, 4-(3-(2-(2-Aminopyrimidin-4-yl)-3-methylbenzo[b]thiophen-5-ylamino)phenylcarbamoyl)benzoic acid] | > 5.30 | > 5.30 |  |  |
| Cc1c(-c2ccnc(N)n2)sc2ccc(Cc3cccc(C(=O)OC(C)C)c3)cc12 [Example 43, Isopropyl 3-((2-(2-aminopyrimidin-4-yl)-3-methylbenzo[b]thiophen-5-yl)methyl)benzoate] | > 5.30 | > 5.30 |  |  |
| Nc1nccc(-c2sc3ccccc3c2Br)n1 [Example 15, 4-(3-Bromobenzo[b]thiophen-2-yl)pyrimidin-2-amine] | > 5.30 | > 5.30 |  |  |
| Cc1c(-c2ccnc(N)n2)sc2ccc(CNC(=O)c3ccccc3Cl)cc12 [Example 147, Cc1c(sc2ccc(CNC(═O)c3ccccc3Cl)cc12)-c4ccnc(N)n4] |  |  | < 5.30 | > 5.30 |
| Cc1c(-c2ccnc(N)n2)sc2ccc(CNC(=O)C(C)c3ccc(O)cc3)cc12 (stereo not shown) [Example 178, CC(C(═O)NCc1ccc2sc(c(C)c2c1)-c3ccnc(N)n3)c4ccc(O)cc4] | > 5.30 | > 5.30 |  |  |
| Cc1c(-c2ccnc(N)n2)sc2ccc(CNC(=O)C(Cc3ccccn3)NC(=O)OC(C)(C)C)cc12 (stereo not shown) [Example 326, Cc1c(sc2ccc(CNC(═O)[C](Cc3ccccn3)NC(═O)OC(C)(C)C)cc12)-c4ccnc(N)n4] | > 5.30 | < 5.30 |  |  |
| Cc1c(-c2ccnc(N)n2)sc2ccc(CNC(=O)c3ccnc(Cl)c3)cc12 [Example 150, Cc1c(sc2ccc(CNC(═O)c3ccnc(Cl)c3)cc12)-c4ccnc(N)n4] | > 5.30 | > 5.30 |  |  |
| Cc1cc(C(=O)NCc2ccc3sc(-c4ccnc(N)n4)c(C)c3c2)n[nH]1 [Example 113, Cc1cc(n[nH]1)C(═O)NCc2ccc3sc(c(C)c3c2)-c4ccnc(N)n4] | < 5.30 | > 5.30 |  |  |

| Compound | pIC50 [1, 3] | pIC50 [2, 4] | pIC50 [1, 5] | pIC50 [2, 6] |
| --- | --- | --- | --- | --- |
| Cc1c(-c2ccnc(N)n2)sc2ccc(CNC(=O)c3cc([N+](=O)[O-])ccc3O)cc12 [Example 228, Cc1c(sc2ccc(CNC(═O)c3cc(ccc3O)[N+]([O−])═O)cc12)-c4ccnc(N)n4] | < 5.30 | > 5.30 |  |  |
| COc1ccc(OC)c(Cc2ccc3sc(-c4ccnc(N)n4)c(C)c3c2)c1 [Example 38, 4-(5-(2,5-Dimethoxybenzyl)-3-methylbenzo[b]thiophen-2-yl)pyrimidin-2-amine] | < 5.30 | < 5.30 |  |  |
| CCCc1ccc(C(=O)NCc2ccc3sc(-c4ccnc(N)n4)c(C)c3c2)cc1 [Example 171, CCCc1ccc(cc1)C(═O)NCc2ccc3sc(c(C)c3c2)-c4ccnc(N)n4] | < 5.30 | < 5.30 |  |  |
| Cc1c(-c2ccnc(N)n2)sc2ccc(CNC(=O)c3cccc(Oc4ccccc4)c3)cc12 [Example 282, Cc1c(sc2ccc(CNC(═O)c3cccc(Oc4ccccc4)c3)cc12)-c5ccnc(N)n5] | < 5.30 | < 5.30 |  |  |
| CC(=O)Oc1ccc(C(=O)NCc2ccc3sc(-c4ccnc(N)n4)c(C)c3c2)cc1 [Example 208, CC(═O)Oc1ccc(cc1)C(═O)NCc2ccc3sc(c(C)c3c2)-c4ccnc(N)n4] | > 5.30 | > 5.30 |  |  |
| Cc1c(-c2ccnc(N)n2)sc2ccc(CNC(=O)c3ccc4ncccc4c3)cc12 [Example 192, Cc1c(sc2ccc(CNC(═O)c3ccc4ncccc4c3)cc12)-c5ccnc(N)n5] | < 5.30 | > 5.30 |  |  |
| Cc1ccc(F)cc1C(=O)NCc1ccc2sc(-c3ccnc(N)n3)c(C)c2c1 [Example 146, Cc1ccc(F)cc1C(═O)NCc2ccc3sc(c(C)c3c2)-c4ccnc(N)n4] | < 5.30 | > 5.30 |  |  |
| Cc1c(-c2ccnc(N)n2)sc2ccc(CNC(=O)c3c(Cl)cc(Cl)cc3Cl)cc12 [Example 300, Cc1c(sc2ccc(CNC(═O)c3c(Cl)cc(Cl)cc3Cl)cc12)-c4ccnc(N)n4] |  |  | < 5.30 | > 5.30 |
| Cc1c(-c2ccnc(N)n2)sc2ccc(Nc3ccncc3)cc12 [Example 66, 4-(3-Methyl-5-(pyridin-4-ylamino)benzo[b]thiophen-2-yl)pyrimidin-2-amine] | > 5.30 | > 5.30 |  |  |
| Cc1c(-c2ccnc(N)n2)sc2ccc(Nc3ccccn3)cc12 [Example 64, 4-(3-Methyl-5-(pyridin-2-ylamino)benzo[b]thiophen-2-yl)pyrimidin-2-amine] | > 5.30 | > 5.30 |  |  |
| COc1cc(C(=O)Nc2ccc3sc(-c4ccnc(N)n4)c(C)c3c2)cc(OC)c1OC [Example 73, N-(2-(2-Aminopyrimidin-4-yl)-3-methylbenzo[b]thiophen-5-yl)-3,4,5-trimethoxy benzamide] | < 5.30 | < 5.30 |  |  |
| Cc1c(-c2ccnc(N)n2)sc2ccc(CNC(=O)c3ccc(OCc4ccccc4)cc3)cc12 [Example 302, Cc1c(sc2ccc(CNC(═O)c3ccc(OCc4ccccc4)cc3)cc12)-c5ccnc(N)n5] | < 5.30 | < 5.30 |  |  |
| Cc1c(-c2ccnc(N)n2)sc2ccc(CNC(=O)CCc3nc4ccccc4[nH]3)cc12 [Example 244, Cc1c(sc2ccc(CNC(═O)CCc3nc4ccccc4[nH]3)cc12)-c5ccnc(N)n5] | > 5.30 | > 5.30 |  |  |
| Cc1c(-c2ccnc(N)n2)sc2ccc(CNC(=O)CCc3cccc(C(F)(F)F)c3)cc12 [Example 294, Cc1c(sc2ccc(CNC(═O)CCc3cccc(c3)C(F)(F)F)cc12)-c4ccnc(N)n4] | > 5.30 | > 5.30 |  |  |
| Cc1c(-c2ccnc(N)n2)sc2ccc(CNC(=O)Cc3cccc(O)c3)cc12 [Example 140, Cc1c(sc2ccc(CNC(═O)Cc3cccc(O)c3)cc12)-c4ccnc(N)n4] | < 5.30 | > 5.30 |  |  |
| Cc1c(-c2ccnc(N)n2)sc2ccc(Nc3cccc(NC(=O)c4ccc(OCCN5CCOCC5)cc4)c3)cc12 [Example 59, N-(3-(2-(2-Aminopyrimidin-4-yl)-3-methylbenzo[b]thiophen-5-ylamino)phenyl)-4-(2-morpholinoethoxy)benzamide] | > 5.30 | > 5.30 |  |  |
| Cc1c(-c2ccnc(N)n2)sc2ccc(CNC(=O)C(CC(C)C)NC(=O)OC(C)(C)C)cc12 (stereo not shown) [Example 323, CC(C)C[C](NC(═O)OC(C)(C)C)C(═O)NCc1ccc2sc(c(C)c2c1)-c3ccnc(N)n3] | > 5.30 | < 5.30 |  |  |
| COc1cc(NC(=O)c2sc3nc(-c4ccncc4)ccc3c2N)cc(OC)c1OC [Example 94] | > 5.30 | > 5.30 |  |  |
| Cc1c(-c2ccnc(N)n2)sc2ccc(CNC(=O)c3ccc(OC(C)C)cc3)cc12 [Example 214, CC(C)Oc1ccc(cc1)C(═O)NCc2ccc3sc(c(C)c3c2)-c4ccnc(N)n4] | < 5.30 | < 5.30 |  |  |
